# Where “and” joins values, the source holds several entries; their conditions need not be identical. Identical values can stand only once.
# Columns and labels:
# Assay in all cases: biochemical
# Type in all cases: binding
# SfurOBP1 = SfurOBP1 (Sogatella furcifera, UniProt V5T8N5); conditions: for Fluorescence competitive binding assay, fluorescence intensity: OBP1, three replicate columns
# Description: (§1) Thirty-six rice odorants ([He et al., 2014]; [Wang et al., 2017]) and 1-N-phenyl-naphthylamine (1-NPN) were purchased from Sigma-Aldrich (St Louis, MO, USA). These odorants and 1-NPN were dissolved in high-performance liquid chromatography (HPLC) purify grade methanol for 1.0 mM as work solution.
# (§2) Fluorescence competitive binding assays were performed on Tecan Spark 10M (Tecan Group Ltd., Männedorf, Switzerland) with the F96 Black ELIAS Plate (Sangon) ([Khuhro et al., 2017]; [Liu et al., 2017]). The solutions were excited at 337 nm and emission spectra were recorded between 390 and 490 nm. First, to test the binding constants of 1-NPN to the SfurOBPs, a 2.0 µM solution of protein in 50 mM Tris-HCl (pH = 7.4) was titrated with 1 mM 1-NPN to achieve virous concentrations. Next, the competitive binding of each odorant was measured using the 1-NPN as fluorescent reporter and odorant as competitor. The concentrations of protein and 1-NPN were both 2.0 µM, the odorant added after protein and 1-NPN added into the well of ELIAS Plate for 2 min. The final concentrations of each competitor were 2, 4, 6, 8, 10, 12, 14, 16, 18 and 20 µM. After 2 min of odorant added, the fluorescence intensity was measured and recorded. The volume of mixed solution in each well was maintained at 250 µL. Each interaction was performed in triplicates.
# (§3) GraphPad Prism 7.0 software (GraphPad Software, Inc., La Jolla, CA, USA) was used to calculated and generated the binding constants (K1−NPN) of 1-NPN to SfurOBPs and relative Scatchard plots ([Ban et al., 2003]; [Li et al., 2016]). Dissociation constant (Ki) of each odorant to SfurOBP was computed from the corresponding IC50 value (the half maximal inhibitory concentration), using the following equation: Ki=[IC50]/(1 + [1-NPN]/K1−NPN), where [1-NPN] is the free concentration of 1-NPN and K1−NPN is the dissociation constant of the complex protein/1-NPN.
# SfurOBP11 = SfurOBP11 (Sogatella furcifera, UniProt V5T6E3)
# SfurOBP11, sequence (V5T6E3 entry or part of it): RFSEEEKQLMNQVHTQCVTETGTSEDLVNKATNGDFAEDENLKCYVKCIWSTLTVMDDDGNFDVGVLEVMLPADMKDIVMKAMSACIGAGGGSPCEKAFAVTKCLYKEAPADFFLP
# Description: as §1, §2, §3
# SfurOBP2 = SfurOBP2 (Sogatella furcifera, UniProt V5T759)
# SfurOBP2, sequence (V5T759 entry or part of it): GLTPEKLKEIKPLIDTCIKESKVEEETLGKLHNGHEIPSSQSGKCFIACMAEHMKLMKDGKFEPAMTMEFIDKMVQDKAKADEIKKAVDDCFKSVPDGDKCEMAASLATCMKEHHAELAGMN
# Description: as §1, §2, §3
# SfurOBP3 = SfurOBP3 (Sogatella furcifera, UniProt V5T818); conditions: for Fluorescence competitive binding assay, fluorescence intensity: OBP3, three replicate columns
# SfurOBP3, sequence (V5T818 entry or part of it): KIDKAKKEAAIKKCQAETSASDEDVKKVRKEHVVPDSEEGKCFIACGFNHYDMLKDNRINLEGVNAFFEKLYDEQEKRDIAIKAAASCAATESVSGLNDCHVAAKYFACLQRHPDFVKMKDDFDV
# Description: as §1, §2, §3
# SfurOBP1, sequence (V5T8N5 entry or part of it): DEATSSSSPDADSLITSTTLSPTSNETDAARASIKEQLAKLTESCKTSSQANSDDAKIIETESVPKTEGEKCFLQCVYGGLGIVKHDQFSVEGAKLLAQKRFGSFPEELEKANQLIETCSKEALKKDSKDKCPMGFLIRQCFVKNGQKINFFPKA
compound,measurement,setting,value
O=C(c1ccccc1)c1ccccc1 [benzophenone],IC50,SfurOBP1,> 20 µM
same,"Fluorescence competitive binding assay, fluorescence intensity",SfurOBP1; ligand concentration 2 (μM),4924 and 4810 and 4695
same,"Fluorescence competitive binding assay, fluorescence intensity",SfurOBP1; ligand concentration 4 (μM),5262 and 5281 and 5299
same,"Fluorescence competitive binding assay, fluorescence intensity",SfurOBP1; ligand concentration 6 (μM),5268 and 5717 and 5292
same,"Fluorescence competitive binding assay, fluorescence intensity",SfurOBP1; ligand concentration 8 (μM),5360 and 5130 and 5580
same,"Fluorescence competitive binding assay, fluorescence intensity",SfurOBP1; ligand concentration 10 (μM),5344 and 5432 and 5519
same,"Fluorescence competitive binding assay, fluorescence intensity",SfurOBP1; ligand concentration 12 (μM),5178 and 5515 and 5347
same,"Fluorescence competitive binding assay, fluorescence intensity",SfurOBP1; ligand concentration 14 (μM),5173 and 5557 and 5365
same,"Fluorescence competitive binding assay, fluorescence intensity",SfurOBP1; ligand concentration 16 (μM),5828 and 4931 and 5380
same,"Fluorescence competitive binding assay, fluorescence intensity",SfurOBP1; ligand concentration 18 (μM),5476 and 5297 and 5257
same,"Fluorescence competitive binding assay, fluorescence intensity",SfurOBP1; ligand concentration 20 (μM),5039 and 5512 and 5595
same,IC50,SfurOBP11,16.3 µM
same,"Fluorescence intensity, fluorescence competitive binding assay, OBP11","SfurOBP11; ligand concentration 2, replicate 1",21450
same,"Fluorescence intensity, fluorescence competitive binding assay, OBP11","SfurOBP11; ligand concentration 2, replicate 2",21005
same,"Fluorescence intensity, fluorescence competitive binding assay, OBP11","SfurOBP11; ligand concentration 2, replicate 3",21027
same,"Fluorescence intensity, fluorescence competitive binding assay, OBP11","SfurOBP11; ligand concentration 4, replicate 1",20588
same,"Fluorescence intensity, fluorescence competitive binding assay, OBP11","SfurOBP11; ligand concentration 4, replicate 2",20654
same,"Fluorescence intensity, fluorescence competitive binding assay, OBP11","SfurOBP11; ligand concentration 4, replicate 3",20719
same,"Fluorescence intensity, fluorescence competitive binding assay, OBP11","SfurOBP11; ligand concentration 6, replicate 1",19889
same,"Fluorescence intensity, fluorescence competitive binding assay, OBP11","SfurOBP11; ligand concentration 6, replicate 2",20401
same,"Fluorescence intensity, fluorescence competitive binding assay, OBP11","SfurOBP11; ligand concentration 6, replicate 3",19317
same,"Fluorescence intensity, fluorescence competitive binding assay, OBP11","SfurOBP11; ligand concentration 8, replicate 1",19997
same,"Fluorescence intensity, fluorescence competitive binding assay, OBP11","SfurOBP11; ligand concentration 8, replicate 2",20308
same,"Fluorescence intensity, fluorescence competitive binding assay, OBP11","SfurOBP11; ligand concentration 8, replicate 3",18308
same,"Fluorescence intensity, fluorescence competitive binding assay, OBP11","SfurOBP11; ligand concentration 10, replicate 1",18532
same,"Fluorescence intensity, fluorescence competitive binding assay, OBP11","SfurOBP11; ligand concentration 10, replicate 2",18946
same,"Fluorescence intensity, fluorescence competitive binding assay, OBP11","SfurOBP11; ligand concentration 10, replicate 3",17435
same,"Fluorescence intensity, fluorescence competitive binding assay, OBP11","SfurOBP11; ligand concentration 12, replicate 1",17719
same,"Fluorescence intensity, fluorescence competitive binding assay, OBP11","SfurOBP11; ligand concentration 12, replicate 2",18881
same,"Fluorescence intensity, fluorescence competitive binding assay, OBP11","SfurOBP11; ligand concentration 12, replicate 3",17057
same,"Fluorescence intensity, fluorescence competitive binding assay, OBP11","SfurOBP11; ligand concentration 14, replicate 1",16744
same,"Fluorescence intensity, fluorescence competitive binding assay, OBP11","SfurOBP11; ligand concentration 14, replicate 2",17392
same,"Fluorescence intensity, fluorescence competitive binding assay, OBP11","SfurOBP11; ligand concentration 14, replicate 3",16199
same,"Fluorescence intensity, fluorescence competitive binding assay, OBP11","SfurOBP11; ligand concentration 16, replicate 1",16069
same,"Fluorescence intensity, fluorescence competitive binding assay, OBP11","SfurOBP11; ligand concentration 16, replicate 2",15955
same,"Fluorescence intensity, fluorescence competitive binding assay, OBP11","SfurOBP11; ligand concentration 16, replicate 3",16012
same,"Fluorescence intensity, fluorescence competitive binding assay, OBP11","SfurOBP11; ligand concentration 18, replicate 1",16341
same,"Fluorescence intensity, fluorescence competitive binding assay, OBP11","SfurOBP11; ligand concentration 18, replicate 2",15453
same,"Fluorescence intensity, fluorescence competitive binding assay, OBP11","SfurOBP11; ligand concentration 18, replicate 3",16084
same,"Fluorescence intensity, fluorescence competitive binding assay, OBP11","SfurOBP11; ligand concentration 20, replicate 1",15275
same,"Fluorescence intensity, fluorescence competitive binding assay, OBP11","SfurOBP11; ligand concentration 20, replicate 2",14432
same,"Fluorescence intensity, fluorescence competitive binding assay, OBP11","SfurOBP11; ligand concentration 20, replicate 3",14489
same,IC50,SfurOBP2,> 20 µM
same,"Fluorescence competitive binding assay, OBP2 (raw fluorescence reading)","SfurOBP2; ligand concentration 2 (unit not given), replicate column 1 of 3",16222
same,"Fluorescence competitive binding assay, OBP2 (raw fluorescence reading)","SfurOBP2; ligand concentration 2 (unit not given), replicate column 2 of 3",16950
same,"Fluorescence competitive binding assay, OBP2 (raw fluorescence reading)","SfurOBP2; ligand concentration 2 (unit not given), replicate column 3 of 3",16565
same,"Fluorescence competitive binding assay, OBP2 (raw fluorescence reading)","SfurOBP2; ligand concentration 4 (unit not given), replicate column 1 of 3",15645
same,"Fluorescence competitive binding assay, OBP2 (raw fluorescence reading)","SfurOBP2; ligand concentration 4 (unit not given), replicate column 2 of 3",17125
same,"Fluorescence competitive binding assay, OBP2 (raw fluorescence reading)","SfurOBP2; ligand concentration 4 (unit not given), replicate column 3 of 3",16794
same,"Fluorescence competitive binding assay, OBP2 (raw fluorescence reading)","SfurOBP2; ligand concentration 6 (unit not given), replicate column 1 of 3",16160
same,"Fluorescence competitive binding assay, OBP2 (raw fluorescence reading)","SfurOBP2; ligand concentration 6 (unit not given), replicate column 2 of 3",16241
same,"Fluorescence competitive binding assay, OBP2 (raw fluorescence reading)","SfurOBP2; ligand concentration 6 (unit not given), replicate column 3 of 3",16073
same,"Fluorescence competitive binding assay, OBP2 (raw fluorescence reading)","SfurOBP2; ligand concentration 8 (unit not given), replicate column 1 of 3",14263
same,"Fluorescence competitive binding assay, OBP2 (raw fluorescence reading)","SfurOBP2; ligand concentration 8 (unit not given), replicate column 2 of 3",14653
same,"Fluorescence competitive binding assay, OBP2 (raw fluorescence reading)","SfurOBP2; ligand concentration 8 (unit not given), replicate column 3 of 3",15131
same,"Fluorescence competitive binding assay, OBP2 (raw fluorescence reading)","SfurOBP2; ligand concentration 10 (unit not given), replicate column 1 of 3",13747
same,"Fluorescence competitive binding assay, OBP2 (raw fluorescence reading)","SfurOBP2; ligand concentration 10 (unit not given), replicate column 2 of 3",14449
same,"Fluorescence competitive binding assay, OBP2 (raw fluorescence reading)","SfurOBP2; ligand concentration 10 (unit not given), replicate column 3 of 3",15134
same,"Fluorescence competitive binding assay, OBP2 (raw fluorescence reading)","SfurOBP2; ligand concentration 12 (unit not given), replicate column 1 of 3",12905
same,"Fluorescence competitive binding assay, OBP2 (raw fluorescence reading)","SfurOBP2; ligand concentration 12 (unit not given), replicate column 2 of 3",13209
same,"Fluorescence competitive binding assay, OBP2 (raw fluorescence reading)","SfurOBP2; ligand concentration 12 (unit not given), replicate column 3 of 3",14417
same,"Fluorescence competitive binding assay, OBP2 (raw fluorescence reading)","SfurOBP2; ligand concentration 14 (unit not given), replicate column 1 of 3",11252
same,"Fluorescence competitive binding assay, OBP2 (raw fluorescence reading)","SfurOBP2; ligand concentration 14 (unit not given), replicate column 2 of 3",12436
same,"Fluorescence competitive binding assay, OBP2 (raw fluorescence reading)","SfurOBP2; ligand concentration 14 (unit not given), replicate column 3 of 3",12979
same,"Fluorescence competitive binding assay, OBP2 (raw fluorescence reading)","SfurOBP2; ligand concentration 16 (unit not given), replicate column 1 of 3",11787
same,"Fluorescence competitive binding assay, OBP2 (raw fluorescence reading)","SfurOBP2; ligand concentration 16 (unit not given), replicate column 2 of 3",11767
same,"Fluorescence competitive binding assay, OBP2 (raw fluorescence reading)","SfurOBP2; ligand concentration 16 (unit not given), replicate column 3 of 3",11673
same,"Fluorescence competitive binding assay, OBP2 (raw fluorescence reading)","SfurOBP2; ligand concentration 18 (unit not given), replicate column 1 of 3",12436
same,"Fluorescence competitive binding assay, OBP2 (raw fluorescence reading)","SfurOBP2; ligand concentration 18 (unit not given), replicate column 2 of 3",11331
same,"Fluorescence competitive binding assay, OBP2 (raw fluorescence reading)","SfurOBP2; ligand concentration 18 (unit not given), replicate column 3 of 3",11969
same,"Fluorescence competitive binding assay, OBP2 (raw fluorescence reading)","SfurOBP2; ligand concentration 20 (unit not given), replicate column 1 of 3",11423
same,"Fluorescence competitive binding assay, OBP2 (raw fluorescence reading)","SfurOBP2; ligand concentration 20 (unit not given), replicate column 2 of 3",12242
same,"Fluorescence competitive binding assay, OBP2 (raw fluorescence reading)","SfurOBP2; ligand concentration 20 (unit not given), replicate column 3 of 3",11724
same,IC50,SfurOBP3,> 20 µM
same,"Fluorescence competitive binding assay, fluorescence intensity",SfurOBP3; ligand concentration 2,66323 and 67865 and 69406
same,"Fluorescence competitive binding assay, fluorescence intensity",SfurOBP3; ligand concentration 4,72270 and 71733 and 72815
same,"Fluorescence competitive binding assay, fluorescence intensity",SfurOBP3; ligand concentration 6,57537 and 56825 and 55208
same,"Fluorescence competitive binding assay, fluorescence intensity",SfurOBP3; ligand concentration 8,58199 and 53071 and 55635
same,"Fluorescence competitive binding assay, fluorescence intensity",SfurOBP3; ligand concentration 10,54477 and 51518 and 50551
same,"Fluorescence competitive binding assay, fluorescence intensity",SfurOBP3; ligand concentration 12,55084 and 52185 and 53632
same,"Fluorescence competitive binding assay, fluorescence intensity",SfurOBP3; ligand concentration 14,52805 and 53281 and 53058
same,"Fluorescence competitive binding assay, fluorescence intensity",SfurOBP3; ligand concentration 16,41260 and 41464 and 41332
same,"Fluorescence competitive binding assay, fluorescence intensity",SfurOBP3; ligand concentration 18,39853 and 41331 and 40577
same,"Fluorescence competitive binding assay, fluorescence intensity",SfurOBP3; ligand concentration 20,39610 and 40773 and 38426
